Assay results: PMC9069370, “Integrated Design of a Membrane‐Lytic Peptide‐Based Intravenous Nanotherapeutic Suppresses Triple‐Negative Breast Cancer” (Advanced Science, 2022)
Peptide text beside a SMILES is read from it.

How the values were obtained:
[1] = ANTS/DPX liposome leakage assay; conditions: 0.5 mM vesicles, peptide 0-20 µM, 3 h incubation, lipid per peptide; for Peptide Concentration-induced 50 % ANTS/DPX leakage at pH 4.8 (L/P), 3POPC/1POPG Vesicle / Peptide Concentration-induced 50 % ANTS/DPX leakage at pH 4.8 (L/P), POPC Vesicle: HCl-adjusted PBS 1X pH 4.8; for Peptide Concentration-induced 50 % ANTS/DPX leakage at pH 7.4 (L/P), 3POPC/1POPG Vesicle / Peptide Concentration-induced 50 % ANTS/DPX leakage at pH 7.4 (L/P), POPC Vesicle: PBS 1X pH 7.4, high ratio = more potent
Procedure: Vesicle preparation: 5 mM ANTS and 12.5 mM DPX were entrapped in 0.1 µm diameter extruded vesicles (either POPC or POPC/POPG at a ratio of 3:1) with lipids. Gel filtration chromatography of Sephadex G‐100 was used to remove external free ANTS/DPX from LUVs with entrapped contents. LUVs were diluted to 0.5 mM and used to measure the leakage activity by the addition of aliquots of ACPs. Leakage was measured after 3 h incubation. 10% Triton was used as the positive control to measure the maximum leakage of the vesicle. Fluorescence emission spectra were recorded using excitation and emission wavelength of 350 and 510 nm for ANTS/DPX using a BioTek Synergy H1 Hybrid Multi‐Mode Reader.
Peptide Concentration-induced Peptide Concentration-induced
Name Sequence† 50 % ANTS/DPX leakage 50 % ANTS/DPX leakage at pH 7.4 (L/P) at pH 4.8 (L/P)
POPC Vesicle 3POPC/1POPG Vesicle POPC Vesicle 3POPC/1POPG Vesicle […]
Extended Data Table 4 | Peptide concentration-induced 50 % ANTS/DPX liposome leakage. 0.5 mM POPC and 3POPC/1POPG vesicles were fixed and incubated with titrated peptide concentration (0, 0.02, […]
hydrochloric acid-adjusted phoshate buffered saline (1X, pH 4.8). The values are shown as lipid per

[2] = Tryptophan fluorescent binding assay; conditions: tryptophan fluorescence; 50 µM peptide, lipid titrated 0-5000 µM; phosphate buffered saline 1X, pH 7.4; values as lipid per peptide
Procedure: 50 µM ACP peptides and varied concentrations (concentrations: 0, 25, 50, 100, 150, 200, 250, 500, 1250, and 2500 µM) of POPC or POPC:POPG (3:1 ratio) large unilamellar vesicles were prepared in 10 mM phosphate buffer (pH 7.0). The solutions were measured after 1 h of incubation. Excitation was fixed at 280 nm (slit 9 nm) and emission was collected from 300 to 450 nm (slit 9 nm). The spectra were recorded using Cytation 5 Cell Imaging Multi‐Mode Reader from BioTek and were averaged by three scans.
Lipid Concentration-induced
Name Sequence† 50% Peptide Binding (L/P)
Extended Data Table 3 | Tryptophan binding assay. […]
peptide binding onto liposome. 50 µM peptides were fixed and incubated with titrated lipid (POPC vesicle […]
phosphate buffered saline (1X, pH 7.4). The lipid concentration that causes 50 % peptide binding was determined using tryptophan fluorescent binding assay and the values are shown as lipid per peptide.

[3] = system: HMLER; assay: cells; assay type: cell-based, human; conditions: 72 h
Description: (§1) […], and MCF-10A cells were maintained in MEGM with supplements and growth factors bovine pituitary extract, hydrocortisone, human epidermal growth factor, insulin, and gentamicin/amphotericin-B.

[4] = system: MCF‐10A; assay: cells; assay type: cell-based, human; conditions: 72 h
Description: as §1

[5] = system: HMLER‐shEcad; assay: cells; assay type: cell-based, human; conditions: 72 h
Description: as §1

[6] = system: U2OS; assay type: cell-based, human; conditions: 72 h
[7] = system: HEK293T; assay: cells; assay type: cell-based, human; conditions: 72 h

| Compound | Peptide Concentration-induced 50 % ANTS/DPX leakage at pH 4.8 (L/P), 3POPC/1POPG Vesicle [1] [L/P] | Peptide Concentration-induced 50 % ANTS/DPX leakage at pH 4.8 (L/P), POPC Vesicle [1] [L/P] | Peptide Concentration-induced 50 % ANTS/DPX leakage at pH 7.4 (L/P), 3POPC/1POPG Vesicle [1] [L/P] | Peptide Concentration-induced 50 % ANTS/DPX leakage at pH 7.4 (L/P), POPC Vesicle [1] [L/P] | Lipid Concentration-induced 50% Peptide Binding (L/P), 3POPC/1POPG Vesicle [2] [L/P] | Lipid Concentration-induced 50% Peptide Binding (L/P), POPC Vesicle [2] [L/P] | IC50 [3] [µM] | IC50 [4] [µM] | IC50 [5] [µM] | IC50 [6] [µM] | IC50 [7] [µM] |
| --- | --- | --- | --- | --- | --- | --- | --- | --- | --- | --- | --- |
| CC(C)C[C@H](NC(=O)CN)C(=O)N[C@@H](CC(C)C)C(=O)N[C@@H](CCCCN)C(=O)N[C@@H](CC(C)C)C(=O)N[C@@H](CC(C)C)C(=O)N[C@@H](Cc1c[nH]cn1)C(=O)N[C@@H](CC(C)C)C(=O)N[C@@H](CC(C)C)C(=O)N[C@@H](CC(C)C)C(=O)N[C@@H](Cc1c[nH]cn1)C(=O)N[C@@H](C)C(=O)N[C@@H](C)C(=O)NCC(=O)N[C@@H](Cc1c[nH]c2ccccc12)C(N)=O [KHH] (H-GLLKLLHLLLHAAGW-NH2) | 48 | 227 | 329 | 1153 | 0.94 | 3.50 | 5.2 ± 0.71 | 10.3 ± 0.49 | 4.45 ± 0.49 | 39.8 ± 5.3 | 7.75 ± 0.78 |
| CC(C)C[C@H](NC(=O)CN)C(=O)N[C@@H](CC(C)C)C(=O)N[C@@H](CCCCN)C(=O)N[C@@H](CC(C)C)C(=O)N[C@@H](CC(C)C)C(=O)N[C@@H](Cc1c[nH]cn1)C(=O)N[C@@H](CC(C)C)C(=O)N[C@@H](CC(C)C)C(=O)N[C@@H](CC(C)C)C(=O)N[C@@H](CCCCN)C(=O)N[C@@H](C)C(=O)N[C@@H](C)C(=O)NCC(=O)N[C@@H](Cc1c[nH]c2ccccc12)C(N)=O [KHK] (H-GLLKLLHLLLKAAGW-NH2) | 53 | 140 | 193 | 1153 | 0.38 | 0.17 | 2.59 ± 0.92 | 1.81 ± 0.05 | 1.4 ± 0.14 | 12.9 ± 1.24 | 3.55 ± 0.78 |
| CC(C)C[C@H](NC(=O)CN)C(=O)N[C@@H](CC(C)C)C(=O)N[C@@H](CCC(=O)O)C(=O)N[C@@H](CC(C)C)C(=O)N[C@@H](CC(C)C)C(=O)N[C@@H](CCCCN)C(=O)N[C@@H](CC(C)C)C(=O)N[C@@H](CC(C)C)C(=O)N[C@@H](CC(C)C)C(=O)N[C@@H](CCC(=O)O)C(=O)N[C@@H](C)C(=O)N[C@@H](C)C(=O)NCC(=O)N[C@@H](Cc1c[nH]c2ccccc12)C(N)=O [EKE] (H-GLLELLKLLLEAAGW-NH2) | 438 | 75 | 657 | 738 | 1.63 | 2.75 | 1.8 ± 0.28 | 8.8 | 1.3 ± 0.14 | 8 ± 0.71 | 5.15 ± 0.21 |
| CC(C)C[C@H](NC(=O)CN)C(=O)N[C@@H](CC(C)C)C(=O)N[C@@H](CCCCN)C(=O)N[C@@H](CC(C)C)C(=O)N[C@@H](CC(C)C)C(=O)N[C@@H](CCC(=O)O)C(=O)N[C@@H](CC(C)C)C(=O)N[C@@H](CC(C)C)C(=O)N[C@@H](CC(C)C)C(=O)N[C@@H](Cc1c[nH]cn1)C(=O)N[C@@H](C)C(=O)N[C@@H](C)C(=O)NCC(=O)N[C@@H](Cc1c[nH]c2ccccc12)C(N)=O [KEH] (H-GLLKLLELLLHAAGW-NH2) | 68 | 188 | 286 | 995 | 0.50 | 1.00 | 3.3 ± 0.42 | 20 | 2.35 ± 0.07 | 49.2 ± 5.3 | 5.65 ± 0.07 |
| CC(C)C[C@H](NC(=O)CN)C(=O)N[C@@H](CC(C)C)C(=O)N[C@@H](CC(=O)O)C(=O)N[C@@H](CC(C)C)C(=O)N[C@@H](CC(C)C)C(=O)N[C@@H](Cc1c[nH]cn1)C(=O)N[C@@H](CC(C)C)C(=O)N[C@@H](CC(C)C)C(=O)N[C@@H](CC(C)C)C(=O)N[C@@H](Cc1c[nH]cn1)C(=O)N[C@@H](C)C(=O)N[C@@H](C)C(=O)NCC(=O)N[C@@H](Cc1c[nH]c2ccccc12)C(N)=O [DHH] (H-GLLDLLHLLLHAAGW-NH2) | 98 | 106 | 692 | 684 | 0.28 | 0.67 | 21.4 ± 2.47 | > 200 | 11.9 ± 0.14 | 55.9 ± 18.9 | 6.4 ± 0.42 |
| CC(C)C[C@H](NC(=O)CN)C(=O)N[C@@H](CC(C)C)C(=O)N[C@@H](CC(=O)O)C(=O)N[C@@H](CC(C)C)C(=O)N[C@@H](CC(C)C)C(=O)N[C@@H](Cc1c[nH]cn1)C(=O)N[C@@H](CC(C)C)C(=O)N[C@@H](CC(C)C)C(=O)N[C@@H](CC(C)C)C(=O)N[C@@H](CCC(=O)O)C(=O)N[C@@H](C)C(=O)N[C@@H](C)C(=O)NCC(=O)N[C@@H](Cc1c[nH]c2ccccc12)C(N)=O [DHE] (H-GLLDLLHLLLEAAGW-NH2) | 469 | 58 | 581 | 566 | 0.72 | 1.00 | 3.75 ± 0.92 | 22.7 ± 4.31 | 2.8 ± 0.14 | 17.2 ± 1.06 | 11.1 ± 1.91 |
| CC(C)C[C@H](NC(=O)CN)C(=O)N[C@@H](CC(C)C)C(=O)N[C@@H](CCCCN)C(=O)N[C@@H](CC(C)C)C(=O)N[C@@H](CC(C)C)C(=O)N[C@@H](CCCCN)C(=O)N[C@@H](CC(C)C)C(=O)N[C@@H](CC(C)C)C(=O)N[C@@H](CC(C)C)C(=O)N[C@@H](Cc1c[nH]cn1)C(=O)N[C@@H](C)C(=O)N[C@@H](C)C(=O)NCC(=O)N[C@@H](Cc1c[nH]c2ccccc12)C(N)=O [KKH] (H-GLLKLLKLLLHAAGW-NH2) | 49 | 164 | 227 | 2119 | 0.48 | 0.83 | 2.4 ± 0.85 | 1.75 ± 0.35 | 2.2 ± 0.42 | 13.3 ± 0.99 | 4 ± 0.28 |
